In brackets after ≈: the same amount, converted by molar mass. Activity calls are given as the source filed them. No cut-off for these calls is given here.
Assays:
[1] = tested on: Mycobacterium tuberculosis; assay: Antituberculosis activity against Mycobacterium tuberculosis H37Rv; assay type: functional, organism-based
[2] = Cytotoxicity against African green monkey Vero cells; assay type: toxicity, cell-based; settings: African green monkey (Chlorocebus sabaeus)
[3] = Selectivity index, ratio of EC50 for african green monkey Vero cells to IC90 for Mycobacterium tuberculosis H37Rv; assay type: toxicity; settings: read-out: Selectivity Index
[4] = tested on: Mycobacterium tuberculosis; assay: Antituberculosis activity against Mycobacterium tuberculosis H37Rv infected in macrophage assessed as reduction in bacterial load at 2 times IC90 incubated for 3 days; assay type: functional, organism-based; settings: time 3.0 day
[5] = tested on: Mycobacterium tuberculosis; assay: Antituberculosis activity against Mycobacterium tuberculosis H37Rv infected in macrophage assessed as reduction in bacterial load at 10 times IC90 incubated for 3 days; assay type: functional, organism-based; settings: time 3.0 day
BMDM = assay: Cytotoxicity against mouse BMDMs at 2 to 10 times MIC incubated for 24 hrs by MTS assay; assay type: toxicity, cell-based
[6] = Biodistribution in C57BL/6 mouse liver at 25 mg/kg, po administered as single dose and measured after 2 hrs by HPLC based UV-Visble detector method; assay type: ADME, organism-based; settings: read-out: Drug uptake
[7] = Biodistribution in C57BL/6 mouse liver at 25 mg/kg, po administered as single dose and measured after 6 hrs by HPLC based UV-Visble detector method; assay type: ADME, organism-based; settings: read-out: Drug uptake
[8] = Biodistribution in C57BL/6 mouse liver at 25 mg/kg, po administered as single dose and measured after 24 hrs by HPLC based UV-Visble detector method; assay type: ADME, organism-based; settings: in vivo
[9] = Biodistribution in C57BL/6 mouse lung at 25 mg/kg, po administered as single dose and measured after 24 hrs by HPLC based UV-Visble detector method; assay type: ADME, organism-based; settings: read-out: Drug uptake
[10] = Biodistribution in C57BL/6 mouse lung at 25 mg/kg, po administered as single dose and measured after 48 hrs by HPLC based UV-Visble detector method; assay type: ADME, organism-based; settings: read-out: Drug uptake
[11] = Biodistribution in C57BL/6 mouse blood at 25 mg/kg, po administered as single dose and measured after 2 hrs by HPLC based UV-Visble detector method; assay type: ADME, organism-based; settings: read-out: Drug uptake
[12] = Biodistribution in C57BL/6 mouse blood at 25 mg/kg, po administered as single dose and measured after 6 hrs by HPLC based UV-Visble detector method; assay type: ADME, organism-based; settings: read-out: Drug uptake
[13] = tested on: Mycobacterium tuberculosis; assay: Antimycobacterial activity against Mycobacterium tuberculosis H37Rv infected in C57BL/6 mouse assessed as reduction in liver bacterial burden at 25 mg/kg, po pre-infected for 24 hrs followed by compound addition for 6 days per week and measured on day 18; assay type: functional, organism-based; settings: time 18.0 day
[14] = tested on: Mycobacterium tuberculosis; assay: Antimycobacterial activity against Mycobacterium tuberculosis H37Rv infected in C57BL/6 mouse assessed as reduction in lung bacterial burden at 25 mg/kg, po pre-infected for 24 hrs followed by compound addition for 6 days per week and measured on day 18 and 36; assay type: functional, organism-based; settings: time 18-36 day

Row | Structure (SMILES) | IC50 [1] [µg/mL] | IC90 [1] [µg/mL] | also measured
1 | CCc1ccc(-c2nc(C(N)=O)c3ncn(-c4ccccc4)c3n2)cc1 | > 100 | > 100 | –
2 | Cc1ccc(-n2cnc3c(C(N)=O)nc(-c4ccc(O)cc4)nc32)cc1 | 19.2 (≈ 55.6 µM) | > 100 | –
3 | COc1ccc2cc(-c3nc(C(N)=O)c4ncn(-c5ccccc5)c4n3)ccc2c1 | > 100 | > 100 | –
4 | COc1ccc(-c2nc(C(N)=O)c3ncn(-c4ccccc4)c3n2)cc1 | < 0.1 | < 0.19 | EC50 [2]: > 30 µg/mL; selectivity ratio [3]: > 154; Activity [4]: Active; Activity [5]: Active; Activity (BMDM): Non-Toxic; concentration at 2 h [6]: 4800 ng/g; concentration at 6 h [7]: 1460 ng/g; Drug uptake [8]: Not Active; concentration at 24 h [9]: 4030 ng/g; concentration at 48 h [10]: 1210 ng/g; concentration at 2 h [11]: 630 ng/g; concentration at 6 h [12]: 2160 ng/g; Activity [13]: Active; Activity [14]: Active
5 | N#Cc1ccc(-n2cnc3c(C(N)=O)nc(-c4cccc(O)c4)nc32)cc1 | 38.5 (≈ 108 µM) | > 100 | –
6 | NC(=O)c1nc(-c2ccccc2O)nc2c1ncn2Cc1ccccc1 | > 100 | > 100 | –
7 | Cn1cnc2c(C(N)=O)nc(-c3ccccc3O)nc21 | > 100 | > 100 | –
8 | NC(=O)c1nc(-c2ccc(O)cc2)nc2c1ncn2-c1ccccc1 | 0.7 (≈ 2.11 µM) | 1.2 (≈ 3.62 µM) | EC50 [2]: > 30 µg/mL; selectivity ratio [3]: > 25.5
9 | NC(=O)c1nc(-c2ccc(O)cc2)nc2c1ncn2Cc1ccccc1 | > 100 | > 100 | –
10 | NC(=O)c1nc(-c2ccc(OC(F)(F)F)cc2)nc2c1ncn2-c1ccccc1 | > 100 | > 100 | –
11 | CN(C)c1ccc(-c2nc(C(N)=O)c3ncn(-c4ccccc4)c3n2)cc1 | 1.38 (≈ 3.85 µM) | 1.67 (≈ 4.66 µM) | EC50 [2]: > 40 µg/mL; selectivity ratio [3]: > 23.9
12 | N#Cc1ccc(-n2cnc3c(C(N)=O)nc(-c4ccc(O)cc4)nc32)cc1 | > 100 | > 100 | –
13 | CCOc1ccc(-c2nc(C(N)=O)c3ncn(-c4ccccc4)c3n2)cc1 | 1.44 (≈ 4.01 µM) | 1.65 (≈ 4.59 µM) | EC50 [2]: 12.9 µg/mL (≈ 35.9 µM); selectivity ratio [3]: 7.85
14 | Cc1ccc(-n2cnc3c(C(N)=O)nc(-c4ccccc4O)nc32)cc1 | > 100 | > 100 | –
15 | Cn1cnc2c(C(N)=O)nc(-c3ccc(O)cc3)nc21 | 25.8 (≈ 95.8 µM) | 47.8 (≈ 178 µM) | –
16 | NC(=O)c1nc(-c2ccccc2O)nc2c1ncn2-c1ccccc1 | > 100 | > 100 | –
17 | NC(=O)c1nc(-c2cccc(O)c2)nc2c1ncn2-c1ccccc1 | > 100 | > 100 | –
18 | NC(=O)c1nc(-c2ccc(N3CCOCC3)cc2)nc2c1ncn2-c1ccccc1 | > 100 | > 100 | –
19 | Cn1cnc2c(C(N)=O)nc(-c3cccc(O)c3)nc21 | > 100 | > 100 | –
20 | CC(C)(C)Oc1ccc(-c2nc(C(N)=O)c3ncn(-c4ccccc4)c3n2)cc1 | > 100 | > 100 | –
21 | COc1ccc(-n2cnc3c(C(N)=O)nc(-c4ccc(O)cc4)nc32)cc1 | > 100 | > 100 | –
22 | N#Cc1ccc(-n2cnc3c(C(N)=O)nc(-c4ccccc4O)nc32)cc1 | > 100 | > 100 | –
23 | COc1ccc(-n2cnc3c(C(N)=O)nc(-c4ccccc4O)nc32)cc1 | > 100 | > 100 | –
24 | Cc1ccc(-n2cnc3c(C(N)=O)nc(-c4cccc(O)c4)nc32)cc1 | > 100 | > 100 | –
25 | COc1ccc(-n2cnc3c(C(N)=O)nc(-c4cccc(O)c4)nc32)cc1 | > 100 | > 100 | –
26 | NC(=O)c1nc(-c2ccc(C(F)(F)F)cc2)nc2c1ncn2-c1ccccc1 | > 100 | > 100 | –
27 | COc1ccc(-c2nc(C(N)=O)c3ncn(-c4ccccc4)c3n2)c2ccccc12 | > 100 | > 100 | –
28 | NC(=O)c1nc(-c2ccc(Oc3ccc(Cl)cc3)cc2)nc2c1ncn2-c1ccccc1 | 2.69 (≈ 6.09 µM) | 3.09 (≈ 6.99 µM) | EC50 [2]: 12.7 µg/mL (≈ 28.7 µM); selectivity ratio [3]: 4.11

From ChEMBL document CHEMBL5506006, “Discovery of 2,9-diaryl-6-carbamoylpurines as a novel class of antitubercular agents” (Eur J Med Chem, 2024)
